# Measurements published in ChEMBL document CHEMBL3352700 (Bioorg Med Chem Lett, 2015).
# Columns and labels:
# [1] = Effective permeability by PAMPA method; type: ADME; settings: read-out: Peff
# [2] = AUC (infinity) in IGS rat at 1 mg/kg, iv administered as single dose; type: ADME, organism-based; parameters: time infinity, dose 1 mg/kg, route intravenous; settings: plasma
# [3] = Cmax in rat at 300 mg/kg, po; type: ADME, organism-based; parameters: dose 300 mg/kg, route oral; settings: in vivo
# [4] = Cmax in Beagle Marshall dog at 1 mg/kg, po administered as single dose; type: ADME, organism-based, Canis lupus familiaris; parameters: dose 1 mg/kg, route oral; settings: in vivo
# Rattus norvegicus [5] = test: Volume of distribution at steady state in IGS rat at 3 mg/kg, po administered as single dose; type: ADME, organism-based; parameters: dose 3 mg/kg, route oral; settings: in vivo
# [6] = Oral bioavailability in Beagle Marshall dog at 1 mg/kg administered as single dose; type: ADME, organism-based, Canis lupus familiaris; settings: in vivo
# [7] = Oral bioavailability in IGS rat at 3 mg/kg administered as single dose; type: ADME, organism-based; settings: in vivo
# [8] = Cmax in IGS rat at 3 mg/kg, po administered as single dose; type: ADME, organism-based; parameters: dose 3 mg/kg, route oral; settings: in vivo
# [9] = AUC (infinity) in Beagle Marshall dog at 1 mg/kg, po administered as single dose; type: ADME, organism-based, Canis lupus familiaris; parameters: time infinity, dose 1 mg/kg, route oral; settings: plasma
# [10] = Volume of distribution at steady state in Beagle Marshall dog at 1 mg/kg administered as single dose; type: ADME, organism-based, Canis lupus familiaris; parameters: dose 1 mg/kg; settings: in vivo, read-out: Vdss
# Rattus norvegicus [11] = test: AUC (infinity) in IGS rat at 3 mg/kg, po administered as single dose; type: ADME, organism-based, Plasma; parameters: time infinity, dose 3 mg/kg, route oral; settings: in vivo
structure (smiles),measurement,setting,value
CN(C)CCn1c(CC(C)(C)C)nc2cc(S(=O)(=O)C3CN(C(N)=O)C3)ccc21,Papp,[1],0.6 ×10⁻⁶ cm/s
CN(C)CCn1c(CC(C)(C)C)nc2cc(S(=O)(=O)C3CN(C)C3)ccc21,Papp,[1],7.8 ×10⁻⁶ cm/s
CN(C)CCn1c(CC(C)(C)C)nc2cc(S(=O)(=O)C3CN(S(C)(=O)=O)C3)ccc21,Papp,[1],5.9 ×10⁻⁶ cm/s
CN(C)CCn1c(CC(C)(C)C)nc2cc(S(=O)(=O)C3CN(CC(F)(F)F)C3)ccc21,Papp,[1],18 ×10⁻⁶ cm/s
CN(C)CCn1c(CC(C)(C)C)nc2cc(S(=O)(=O)C3CN(CCO)C3)ccc21,AUC(0-inf),[2],391 ng·h/mL
same,Cmax,[3],1800 ng/mL
same,Cmax,[4],102 ng/mL
same,Vdss,Rattus norvegicus [5],5.696 L/kg
same,Papp,[1],1.5 ×10⁻⁶ cm/s
same,bioavailability,[6],72%
same,bioavailability,[7],20%
same,Cmax,[8],38 ng/mL
same,AUC(0-inf),[9],1000 ng·h/mL
same,Vd,[10],5.69 L/kg
same,AUC,Rattus norvegicus [11],300 ng·h/mL
CCN1CC(S(=O)(=O)c2ccc3c(c2)nc(CC(C)(C)C)n3CCN(C)C)C1,Papp,[1],10 ×10⁻⁶ cm/s
